Test results: patent US8536187B2 (Gilead Sciences, Inc., priority 2008, dated 2013)
pEC50: −log10 of the molar value.

Columns and labels:
[1] = test system: HCV replicon in human hepatoma Huh-7 cell line; assay: Anti-HCV replicon assay, EC50 (luciferase luminescence); type: cell-based; settings: Hepatitis C virus, Huh-7, 72 h
Procedure, shortened: (§1)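 Huh-7 cells carrying HCV replicon (6000/well) incubated with serially diluted compound, 0.5% DMSO final, 3 days at 37° C, 5% CO2. EC50 from luciferase luminescence after 30 min lysis/substrate at room temperature; CC50 from CellTiter-Glo luminescence after 10 min at room temperature.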

[2] = CC50 assay (CellTiter-Glo) in Huh-7 HCV replicon cells; type: cell-based; settings: human, Table 2, 3 days incubation
Procedure, shortened: as §1

| SMILES | pEC50 [1] | CC50 at 3 days [2] [nM] |
| --- | --- | --- |
| NS(=O)(=O)c1cc(F)cc(CNc2nc(NC3(C(F)(F)F)CC3)c3nc(-c4ccc(F)nc4)ccc3n2)c1 [Example 77, 3-fluoro-5-((6-(6-fluoropyridin-3-yl)-4-(1-(trifluoromethyl)cyclopropylamino)pyrido[3,2-d]pyrimidin-2-ylamino)methyl) benzenesulfonamide] | > 7.00 | > 10000 |
| CC(C)(C)NS(=O)(=O)c1cc(F)cc(CNc2nc(NC3(C(F)(F)F)CC3)c3nc(-c4ccc(F)nc4)ccc3n2)c1 [Example 78, N-tert-butyl-3-fluoro-5-((6-(6-fluoropyridin-3-yl)-4-(1-(trifluoromethyl)cyclopropyl-amino)pyrido[3,2-d]pyrimidin-2-ylamino)methyl)benzene-sulfonamide] | 6.60 to 7.00 | > 10000 |
| C[C@@H](Nc1nc(NC2(C(F)(F)F)CC2)c2nc(-c3ccc(F)nc3)ccc2n1)c1ccc(S(N)(=O)=O)cc1 [Example 79, 4-((R)-1-(6-(6-fluoropyridin-3-yl)-4-(1-(trifluoromethyl)cyclopropylamino)pyrido[3,2-d]pyrimidin-2-ylamino)ethyl) benzenesulfonamide] | > 7.00 | > 10000 |
| NS(=O)(=O)c1ccc(CNc2nc(NC3(C(F)(F)F)CC3)c3nc(-c4cccc(C(F)(F)F)c4)ccc3n2)cc1 [Example 80, 4-((4-(1-(trifluoromethyl)cyclopropylamino)-6-(3-(trifluoromethyl)phenyl)pyrido [3,2-d]pyrimidin-2-ylamino)methyl)benzenesulfonamide] | 5.70 to 6.60 | 1000 to 10000 |
| Fc1ccc(-c2ccc3nc(NCc4ccc(-n5cncn5)cc4)nc(NC4(C(F)(F)F)CC4)c3n2)cc1 [Example 81, N^2-(4-(1H-1,2,4-triazol-1-yl)benzyl)-6-(4-fluorophenyl)-N^4-(1-(trifluoromethyl)cyclopropyl)pyrido[3,2-d] pyrimidine-2,4-diamine] | 5.70 to 6.60 | 1000 to 10000 |
| Cc1cc(CNc2nc(NC3(C(F)(F)F)CC3)c3nc(-c4ccc(F)cc4)ccc3n2)cc(S(N)(=O)=O)c1 [Example 82, 3-((6-(4-fluorophenyl)-4-(1-(trifluoromethyl)cyclopropyl-amino)pyrido[3,2-d]pyrimidin-2-ylamino)methyl)-5-methylbenzenesulfonamide] | > 7.00 | > 10000 |
| Cc1cc(S(N)(=O)=O)c(C)cc1CNc1nc(NC2(C(F)(F)F)CC2)c2nc(-c3ccc(F)cc3)ccc2n1 [Example 83, 4-((6-(4-fluorophenyl)-4-(1-(trifluoromethyl)cyclopropylamino)pyrido[3,2-d]pyrimidin-2-ylamino)methyl)-2.5-dimethylbenzenesulfonamide] | 6.60 to 7.00 | > 10000 |
| C[C@@H](Nc1nc(NC2(C(F)(F)F)CC2)c2nc(-c3ccc(N)nc3)ccc2n1)c1ccc(-n2cncn2)cc1 [Example 84, N^2-((R)-1-(4-(1H-1,2,4-triazol-1-yl)phenyl)ethyl)-6-(6-aminopyridin-3-yl)-N^4-(1-(trifluoromethyl)cyclopropyl) pyrido[3,2-d]pyrimidine-2,4-diamine] | > 7.00 | 1000 to 10000 |
| CS(=O)(=O)c1cccc(CNc2nc(NC3(C(F)(F)F)CC3)c3nc(-c4ccc(F)cc4)ccc3n2)c1 [Example 86, N^2-(3-(methylsulfonyl)benzyl)-6-(4-fluorophenyl)-N^4-(1-(trifluoromethyl)cyclopropyl) pyrido[3,2-d]pyrimidine-2,4-diamine] | > 7.00 | > 10000 |
| CS(=O)(=O)Nc1cccc(CNc2nc(NC3(C(F)(F)F)CC3)c3nc(-c4ccc(F)cc4)ccc3n2)c1 [Example 87, N-(3-((6-(4-fluorophenyl)-4-(1-(trifluoromethyl)cyclopropyl-amino)pyrido[3,2-d]pyrimidin-2-ylamino)methyl)phenyl) methanesulfonamide] | 6.60 to 7.00 | > 10000 |
| NS(=O)(=O)c1cc(CNc2nc(NC3(C(F)(F)F)CC3)c3nc(-c4ccc(F)cc4)ccc3n2)ccc1Cl [Example 88, 2-chloro-5-((6-(4-fluorophenyl)-4-(1-(trifluoromethyl)cyclopropyl-amino)pyrido[3,2-d]pyrimidin-2-ylamino)methyl)benzene-sulfonamide] | 6.60 to 7.00 | > 10000 |
| NS(=O)(=O)c1cc(Cl)cc(CNc2nc(NC3(C(F)(F)F)CC3)c3nc(-c4ccc(F)nc4)ccc3n2)c1 [Example 90, 3-chloro-5-((6-(6-fluoropyridin-3-yl)-4-(1-(trifluoromethyl)cyclopropyl-amino)pyrido[3,2-d]pyrimidin-2-ylamino)methyl)benzene-sulfonamide] | > 7.00 | > 10000 |
| NS(=O)(=O)c1cc(Cl)cc(CNc2nc(NC3(C(F)(F)F)CC3)c3nc(C#CC4CC4)ccc3n2)c1 [Example 91, 3-chloro-5-((6-(2-cyclopropylethynyl)-4-(1-(trifluoromethyl)cyclopropyl-amino)pyrido[3,2-d]pyrimidin-2-ylamino)methyl)benzene-sulfonamide] | > 7.00 | > 10000 |
| NS(=O)(=O)c1ccc(CNc2nc(NC3(C(F)(F)F)CC3)c3nc(C#CC4CC4)ccc3n2)cc1 [Example 92, 4-((6-(2-cyclopropylethynyl)-4-(1-(trifluoromethyl)cyclopropyl-amino)pyrido[3,2-d]pyrimidin-2-ylamino)methyl)benzene-sulfonamide] | > 7.00 | 1000 to 10000 |
| COc1ccc(-c2ccc3nc(NCCS(N)(=O)=O)nc(NC4(C(F)(F)F)CC4)c3n2)cc1S(C)(=O)=O [Example 93, 2-(6-(4-methoxy-3-(methylsulfonyl)phenyl)-4-(1-(trifluoromethyl)cyclopropyl-amino)pyrido[3,2-d]pyrimidin-2-ylamino)ethanesulfonamide] | > 7.00 | 1000 to 10000 |
| COc1ccc(-c2ccc3nc(N[C@H](C)c4ccc(-n5cncn5)cc4)nc(NC4(C(F)(F)F)CC4)c3n2)cc1S(C)(=O)=O [Example 94, N^2-((R)-1-(4-(1H-1,2,4-triazol-1-yl)phenyl)ethyl)-6-(4-methoxy-3-(methylsulfonyl)phenyl)-N^4-(1-(trifluoromethyl)cyclopropyl) pyrido[3,2-d]pyrimidine-2,4-diamine] | > 7.00 | 1000 to 10000 |
| NS(=O)(=O)c1cc(Cl)cc(CNc2nc(NC3(C(F)(F)F)CC3)c3nc(-c4ccc(C(=O)NC5(C(F)(F)F)CC5)cc4)ccc3n2)c1 [Example 95, 3-chloro-5-((6-(4-(1-(trifluoromethyl)cyclopropyl-aminocarbonyl)phenyl)-4-(1-(trifluoromethyl)cyclopropyl-amino)pyrido[3,2-d]pyrimidin-2-ylamino)methyl)benzene-sulfonamide] | > 7.00 | 1000 to 10000 |
| NS(=O)(=O)c1ccc(CNc2nc(NC3(C(F)(F)F)CC3)c3nc(-c4ccc(F)nc4)ccc3n2)cc1 [Example 96, 4-((6-(6-fluoropyridin-3-yl)-4-(1-(trifluoromethyl)cyclopropyl-amino)pyrido[3,2-d]pyrimidin-2-ylamino)methyl)benzene-sulfonamide] | > 7.00 | 1000 to 10000 |
